Laboratory results as given in paper PMC5693303 (Journal of medicinal chemistry, 2016).
Marks after values point to notes of the source that are not given here.

Tests used:
KOR [1] = target: KOR (Homo sapiens, UniProt P41145); assay: [^35S]GTPγS assay, agonist mode; type: biochemical; settings: 10 µM, KOR-CHO cells, compared to vehicle
KOR [2] = target: KOR (Cavia porcellus, UniProt P41144); assay: GPI/LMMP assay, inhibition of electrically stimulated muscle contraction; type: cell-based, guinea pig
hMOR = hMOR (Homo sapiens, UniProt P35372); assay: Radioligand competition binding, [^3H]diprenorphine or [^3H]DAMGO; settings: [^3H]diprenorphine, Kd = 2.81 nM; NC = no competition
[3] = Tail flick test, 52 °C water, compound alone
KOR [4] = target: KOR (Mus musculus, UniProt P33534); assay: Tail flick test, pretreatment before KOR agonist 17; type: in vivo, mice; settings: 10 µg in 5 µL l.p., 15 min before 17 (10 µg)
Chain of KOR (Mus musculus, UniProt P33534) (P33534 whole entry): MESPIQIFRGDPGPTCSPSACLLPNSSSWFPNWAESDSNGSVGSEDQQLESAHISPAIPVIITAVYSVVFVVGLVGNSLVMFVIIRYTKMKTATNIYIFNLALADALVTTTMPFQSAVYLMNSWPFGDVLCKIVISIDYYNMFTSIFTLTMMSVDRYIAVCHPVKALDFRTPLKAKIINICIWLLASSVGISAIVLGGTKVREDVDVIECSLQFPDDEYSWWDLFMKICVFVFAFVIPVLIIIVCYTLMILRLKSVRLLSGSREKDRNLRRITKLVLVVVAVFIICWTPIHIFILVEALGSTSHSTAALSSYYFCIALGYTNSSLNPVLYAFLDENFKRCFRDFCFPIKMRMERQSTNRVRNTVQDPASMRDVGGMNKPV

Chain of KOR (Cavia porcellus, UniProt P41144) (P41144 whole entry): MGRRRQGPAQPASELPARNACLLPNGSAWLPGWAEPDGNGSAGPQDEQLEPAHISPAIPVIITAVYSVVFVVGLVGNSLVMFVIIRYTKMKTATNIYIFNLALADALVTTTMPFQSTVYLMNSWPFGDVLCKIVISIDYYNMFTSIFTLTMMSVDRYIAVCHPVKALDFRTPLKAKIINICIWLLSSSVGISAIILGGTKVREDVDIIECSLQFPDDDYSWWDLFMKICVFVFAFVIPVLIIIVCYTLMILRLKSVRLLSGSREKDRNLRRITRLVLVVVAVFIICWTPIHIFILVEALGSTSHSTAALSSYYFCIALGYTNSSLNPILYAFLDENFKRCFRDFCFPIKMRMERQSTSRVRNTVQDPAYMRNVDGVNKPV
Chain of KOR (Homo sapiens, UniProt P41145) (P41145 whole entry): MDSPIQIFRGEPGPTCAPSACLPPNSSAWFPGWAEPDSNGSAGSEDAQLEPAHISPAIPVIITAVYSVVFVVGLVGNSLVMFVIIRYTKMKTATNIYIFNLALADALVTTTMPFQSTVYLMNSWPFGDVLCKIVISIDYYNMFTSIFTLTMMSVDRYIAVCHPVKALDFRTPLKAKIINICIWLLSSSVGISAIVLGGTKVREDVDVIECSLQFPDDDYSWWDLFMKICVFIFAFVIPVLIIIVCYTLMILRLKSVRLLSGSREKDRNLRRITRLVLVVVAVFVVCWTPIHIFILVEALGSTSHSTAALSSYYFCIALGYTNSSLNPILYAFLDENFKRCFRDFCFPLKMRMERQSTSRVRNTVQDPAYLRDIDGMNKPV
Chain of hMOR (P35372 whole entry): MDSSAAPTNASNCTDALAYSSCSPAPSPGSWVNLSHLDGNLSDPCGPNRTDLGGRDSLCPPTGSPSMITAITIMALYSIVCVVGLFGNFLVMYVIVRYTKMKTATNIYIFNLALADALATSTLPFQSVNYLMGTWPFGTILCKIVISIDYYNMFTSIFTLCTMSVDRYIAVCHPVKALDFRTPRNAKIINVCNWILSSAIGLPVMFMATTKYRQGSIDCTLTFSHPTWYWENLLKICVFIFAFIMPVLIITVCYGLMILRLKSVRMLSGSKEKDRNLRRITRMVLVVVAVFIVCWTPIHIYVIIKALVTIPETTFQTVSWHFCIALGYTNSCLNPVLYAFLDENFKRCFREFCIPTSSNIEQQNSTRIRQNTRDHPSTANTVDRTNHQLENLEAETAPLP

Ac-YGGFLRIRPK-NH2 [compound 5]
KOR activation (KOR [1]): did not show KOR activation
percent of agonist activity (KOR [2]; 1 µM test compound, compared to average signal 3 min prior to drug): 0% ^b
agonist response in GPI/LMMP (KOR [2]; in words): did not show significant responses

Ac-YGPFLRIRPK-NH2 [compound 8]
Ki (hMOR): no competition

H-YGGFLRIRPK-NH2 [compound 3]
KOR activation (KOR [1]): significant activation

H-YGPFLRIRPK-NH2 [compound 7]
elevation of TWL, % of max response ([3]; 10 µg in 5 µL i.t., 30 min): 39.45 ± 6.95%
tail withdrawal latency (antinociceptive effect) ([3]; 0.1, 1.0 and 10 µg in 5 µL i.t., compared to vehicle): significantly elevated tail withdrawal latency
blockade of antinociceptive effect of 17 (KOR [4]): significantly blocked
